{"source": "paper PMC10044449", "about": "(Xenobiotica; the fate of foreign compounds in biological …, 2022)", "key": {"[1]": {"experiment": "Plasma protein binding", "type": "in vitro ADME", "conditions": "both, human, pH 7.4, Mean fu (fraction unbound), 37 °C"}, "[2]": {"experiment": "Hepatocyte metabolic stability", "conditions": "Sprague Dawley, rat, hepatocytes"}, "[3]": {"experiment": "Prediction of in vivo CLH from in vitro CLint", "type": "in vitro ADME"}, "[4]": {"experiment": "Liver microsomal metabolic stability", "type": "in vitro ADME, rat"}, "[5]": {"experiment": "Efficacy in a mouse model", "type": "in vivo", "conditions": "corresponds to ca. 0.4 mg/kg in mice"}, "[6]": {"experiment": "Liver microsomal binding", "type": "in vitro ADME", "conditions": "ICR/CD-1, mouse, liver microsomes, pH 7.4"}, "[7]": {"test_system": "microbial versus mammalian β-glucuronidases", "conditions": "ref Pellock et al. 2018; cited from earlier work"}, "[8]": {"conditions": "mice received ca. 0.4 mg/kg; ref Bhatt et al. 2020; cited from earlier work"}, "[9]": {"experiment": "Prediction of in vivo CLH from in vitro CLint", "type": "in vitro ADME, mouse", "conditions": "for Predicted in vivo CLH: mouse"}, "[10]": {"experiment": "Hepatocyte metabolic stability", "conditions": "human, hepatocytes"}, "[11]": {"experiment": "Liver microsomal metabolic stability", "type": "in vitro ADME, mouse"}, "[12]": {"experiment": "UHPLC/MS metabolite characterisation, liver microsome incubations", "type": "in vitro ADME", "conditions": "5 minute rat liver microsome incubation"}, "[13]": {"test_system": "human hepatocytes", "experiment": "UHPLC/MS metabolite characterisation, hepatocyte incubations", "type": "in vitro ADME", "conditions": "120 minute human hepatocyte incubation"}, "[14]": {"test_system": "Escherichia coli GUS", "conditions": "ref Pellock et al. 2018; cited from earlier work"}, "[15]": {"experiment": "UHPLC/MS metabolite characterisation, liver microsome incubations", "type": "in vitro ADME", "conditions": "15 minute human microsome incubation"}, "[16]": {"experiment": "UHPLC/MS metabolite characterisation, liver microsome incubations", "type": "in vitro ADME", "conditions": "5 minute mouse liver microsome incubation"}, "[17]": {"experiment": "Plasma protein binding", "type": "in vitro ADME", "conditions": "rat plasma"}, "[18]": {"experiment": "Liver microsomal metabolic stability"}, "[19]": {"experiment": "Caco-2 bidirectional permeability", "conditions": "human, Caco-2, pH 7.4"}, "[20]": {"test_system": "Caco-2 cells", "experiment": "Caco-2 bidirectional permeability", "conditions": "Caco-2, without inhibitor mix"}, "[21]": {"experiment": "Prediction of in vivo CLH from in vitro CLint", "type": "in vitro ADME, rat", "conditions": "for Predicted in vivo CLH: rat"}, "[22]": {"experiment": "Liver microsomal binding", "type": "in vitro ADME", "conditions": "Sprague Dawley, rat, liver microsomes, pH 7.4"}, "[23]": {"experiment": "Mouse pharmacokinetic study", "type": "in vivo, Swiss albino mice", "conditions": "mice; for AUC(0-t): AUClast"}, "[24]": {"experiment": "Plasma protein binding", "type": "in vitro ADME", "conditions": "male, CD-1, mouse, pH 7.4, Mean fu (fraction unbound), 37 °C"}, "[25]": {"experiment": "Liver microsomal binding", "type": "in vitro ADME", "conditions": "human, liver microsomes, pH 7.4"}, "[26]": {"experiment": "Hepatocyte metabolic stability", "conditions": "ICR/CD-1, mouse, hepatocytes"}, "[27]": {"conditions": "Sprague Dawley, rat, liver microsomes, pH 7.4"}, "[28]": {"conditions": "ICR/CD-1, mouse, liver microsomes, pH 7.4"}}, "note": "Values joined by “and” are separate entries in the source; they are usually repeats but may differ in a detail not shown here. Identical values can stand only once.", "data": [{"smiles": "C1CCc2c(c(N3CCOCC3)nc3sc4c(N5CCNCC5)nnnc4c23)C1", "note": "[UNC10201652, 4-(8-(piperazin-1-yl)-1,2,3,4-tetrahydro-[1,2,3]triazino[4′,5′:4,5]thieno[2,3-c]isoquinolin-5-yl)morpholine]", "values": [{"measurement": "fraction unbound at 4 h, 2 μM", "setting": "[1]", "value": 0.0548}, {"measurement": "half-life at 1 μM", "setting": "[2]", "value": 9.89, "unit": "min"}, {"measurement": "hepatocyte CLint at 1 μM", "setting": "[2]", "value": 140, "unit": "µL/min/1e6 cells"}, {"measurement": "Predicted CLH as % of hepatic blood flow", "setting": "[3]; human", "value": "approximately 22 % of hepatic blood flow"}, {"measurement": "Predicted in vivo CLH", "setting": "[3]; human, scaled from hepatocyte CLint", "value": 4.65, "unit": "mL/min/kg"}, {"measurement": "Predicted in vivo CLH", "setting": "[3]; human, scaled from microsomal CLint", "value": 3.51, "unit": "mL/min/kg"}, {"measurement": "Predicted CLH in human", "setting": "[3]; overall figure from microsomal and hepatocyte data", "value": 4, "unit": "mL/min/kg"}, {"measurement": "half-life at 1 μM", "setting": "[4]; [27]", "value": 7.14, "unit": "min"}, {"measurement": "microsomal CLint at 1 μM", "setting": "[4]; [27]", "value": 194, "unit": "µL/min/mg"}, {"measurement": "Stability in control incubation in the absence of NADPH", "setting": "[4]; rat liver microsomes, without NADPH, 45 min", "value": "stable"}, {"measurement": "Local gut concentration", "setting": "[5]", "value": "approximately 90 μM"}, {"measurement": "fraction unbound at 4 h, 2 μM", "setting": "[6]", "value": 0.453}, {"measurement": "Specificity microbial versus mammalian β-glucuronidases", "setting": "[7]", "value": "highly specific inhibitor"}, {"measurement": "Efficacy in a mouse model", "setting": "[8]", "value": "good efficacy"}, {"measurement": "Scaled hepatocyte CLint as % of hepatic blood flow", "setting": "[9]; mouse hepatocytes", "value": "> 60 % of hepatic blood flow"}, {"measurement": "Predicted in vivo CLH", "setting": "[9]; scaled from hepatocyte CLint", "value": 75.9, "unit": "mL/min/kg"}, {"measurement": "Predicted in vivo CLH", "setting": "[9]; scaled from microsomal CLint", "value": 42.1, "unit": "mL/min/kg"}, {"measurement": "half-life at 1 μM", "setting": "[10]", "value": 66.4, "unit": "min"}, {"measurement": "hepatocyte CLint at 1 μM", "setting": "[10]", "value": 20.9, "unit": "µL/min/1e6 cells"}, {"measurement": "half-life at 1 μM", "setting": "[11]; [28]", "value": 12, "unit": "min"}, {"measurement": "microsomal CLint at 1 μM", "setting": "[11]; [28]", "value": 115, "unit": "µL/min/mg"}, {"measurement": "Stability in control incubation in the absence of NADPH", "setting": "[11]; mouse liver microsomes, without NADPH, 45 min", "value": "stable"}, {"measurement": "Area percentage in sample (% of total drug-related material by MS area)", "setting": "[12]", "value": "ca. 92%"}, {"measurement": "Area percentage in sample (% of total drug-related material by MS area)", "setting": "[13]", "value": "ca. 48%"}, {"measurement": "IC50", "setting": "[14]", "value": 117, "unit": "nM"}, {"measurement": "Area percentage in sample (% of total drug-related material by MS area)", "setting": "[15]", "value": "ca. 82%"}, {"measurement": "Area percentage in sample (% of total drug-related material by MS area)", "setting": "[16]", "value": "ca. 86%"}, {"measurement": "Extent of plasma protein binding", "setting": "[17]", "value": 89, "unit": "%"}, {"measurement": "Stability in control incubation in the absence of NADPH", "setting": "[18]; human liver microsomes, without NADPH, 45 min", "value": "stable"}, {"measurement": "half-life at 1 μM", "setting": "[18]; human, microsomes, pH 7.4", "value": 28.8, "unit": "min"}, {"measurement": "microsomal CLint at 1 μM", "setting": "[18]; human, microsomes, pH 7.4", "value": 48.1, "unit": "µL/min/mg"}, {"measurement": "efflux ratio at 120 min, 10 μM", "setting": "[19]", "value": 2.7}, {"measurement": "Mean A-B Papp", "setting": "[20]; 120 min, pH 7.4", "value": "5.88 cm/s (×10^−6)"}, {"measurement": "Mean B-A Papp", "setting": "[20]; 120 min, pH 7.4", "value": "15.9 cm/s (×10^−6)"}, {"measurement": "Scaled hepatocyte CLint as % of hepatic blood flow", "setting": "[21]; rat hepatocytes", "value": "> 60 % of hepatic blood flow"}, {"measurement": "Predicted in vivo CLH", "setting": "[21]; scaled from hepatocyte CLint", "value": 59.8, "unit": "mL/min/kg"}, {"measurement": "Predicted in vivo CLH", "setting": "[21]; scaled from microsomal CLint", "value": 43.5, "unit": "mL/min/kg"}, {"measurement": "fraction unbound at 4 h, 2 μM", "setting": "[22]", "value": 0.618}, {"measurement": "AUC(0-inf)", "setting": "[23]; male, Swiss albino, mouse, plasma, iv, 3 mg/kg, AUCINF, IV 3 mg/kg", "value": 154, "unit": "ng·h/mL"}, {"measurement": "AUC(0-t)", "setting": "[23]; male, Swiss albino, mouse, plasma, iv, 3 mg/kg, IV 3 mg/kg", "value": 137, "unit": "ng·h/mL"}, {"measurement": "Vd", "setting": "[23]; male, Swiss albino, mouse, plasma, iv, 3 mg/kg, Vss, IV 3 mg/kg", "value": 16.7, "unit": "L/kg"}, {"measurement": "AUC(0-t)", "setting": "[23]; male, Swiss albino, mouse, plasma, po, 3 mg/kg, PO 3 mg/kg", "value": "~20", "unit": "ng·h/mL"}, {"measurement": "Cmax", "setting": "[23]; male, Swiss albino, mouse, plasma, po, 3 mg/kg, Cmax, PO 3 mg/kg", "value": 15.2, "unit": "ng/mL"}, {"measurement": "Tmax", "setting": "[23]; male, Swiss albino, mouse, plasma, po, 3 mg/kg, Tmax, PO 3 mg/kg", "value": 15, "unit": "min"}, {"measurement": "Tolerability / clinical signs", "setting": "[23]; 3 mg/kg IV and PO, with and without ABT, up to 24 h post dose", "value": "no clinical signs were observed"}, {"measurement": "Plasma concentration at the 24 h time point", "setting": "[23]; IV 3 mg/kg, 24 h", "value": "not detectable"}, {"measurement": "Decrease in plasma clearance after ABT", "setting": "[23]; IV 3 mg/kg, ABT versus no ABT", "value": "ca. 2.5 fold"}, {"measurement": "Increase in Vss after ABT", "setting": "[23]; IV 3 mg/kg, ABT versus no ABT", "value": "ca. 2 fold"}, {"measurement": "Increase in plasma half-life after ABT", "setting": "[23]; IV 3 mg/kg, ABT versus no ABT", "value": "ca. 6 fold"}, {"measurement": "CL (plasma clearance)", "setting": "[23]; IV 3 mg/kg, 3 mg/kg", "value": 325.0, "unit": "mL/min/kg"}, {"measurement": "Vss", "setting": "[23]; IV 3 mg/kg, 3 mg/kg", "value": 16.7, "unit": "L/kg"}, {"measurement": "Time of Cmax post dose", "setting": "[23]; PO 3 mg/kg", "value": 15, "unit": "min"}, {"measurement": "F (oral bioavailability, from AUClast)", "setting": "[23]; PO 3 mg/kg + ABT 50 mg/kg 2 h prior", "value": 184, "unit": "%"}, {"measurement": "Increase in plasma Cmax after ABT", "setting": "[23]; PO 3 mg/kg, ABT versus no ABT", "value": "greater than 10 fold"}, {"measurement": "F (oral bioavailability, from AUClast)", "setting": "[23]; PO 3 mg/kg, 3 mg/kg", "value": "15% and 15^c %"}, {"measurement": "fraction unbound at 4 h, 2 μM", "setting": "[24]", "value": 0.0648}, {"measurement": "fraction unbound at 4 h, 2 μM", "setting": "[25]", "value": 0.642}, {"measurement": "half-life at 1 μM", "setting": "[26]", "value": 11.9, "unit": "min"}, {"measurement": "hepatocyte CLint at 1 μM", "setting": "[26]", "value": 116, "unit": "µL/min/1e6 cells"}]}, {"smiles": "COc1ccc2c(c1)[C@]13CCCC[C@@H]1[C@H](C2)N(C)CC3", "note": "[dextromethorphan, reference compound]", "values": [{"measurement": "microsomal CLint at 1 μM", "setting": "[18]; human, microsomes, pH 7.4", "value": 44.8, "unit": "µL/min/mg"}]}, {"smiles": "C[C@]12CC[C@@H]3c4ccc(OS(=O)(=O)O)cc4CC[C@H]3[C@@H]1CCC2=O", "note": "[oestrone 3-sulfate, reference compound]", "values": [{"measurement": "Efflux ratio", "setting": "[20]", "value": 105}]}]}
